Laboratory results taken from patent publication US10393744B2, “Peptides for targeting colorectal cancer, and medical use thereof” (UNIVERSITY OF ULSAN FOUNDATION FOR INDUSTRY COOPERATION, priority 2014, dated 2019).

What was measured:
[1] = tested on: Radio-sensitive colorectal cancer tissue of patient (case C87); test: In vivo/ex vivo imaging and phage elution of Cy5.5-labeled peptide-expressing phages in mouse model transplanted with patient's colorectal cancer tissue (Example 4); parameters: species or system nude mouse; conditions: for in vivo ROI: Cy5.5 fluorescence total flux standardized to Cy5.5 dye control; for pfu/mg (concentration of eluted phages relative to weight of cancer tissue) / ex vivo ROI: extracted cancer tissue; for ex vivo ROI: standardized to Cy5.5 dye control
Text: (§1) Then, the distributed cancer tissue was kept in a specific preservative solution and transferred directly to an animal chamber, so as to maintain a state in which the cancer tissue was not separated from a patient yet. After an NOD/SCID mouse was anesthetized via intraperitoneal injection of anesthetics, the cancer tissue was cut into pieces each having a size of 3×3 mm. Next, each of both flanks of the NOD/SCID mouse was transplanted with a piece of the cut cancer tissues, and sutured. The NOD/SCID mouse was then recovered on a heating pad for about 2 hours (conditions of the preservative solution: HBSS containing 100 IU/ml penicillin, 100 μg/ml streptomycin, 100 μg/ml gentamicin, 2.5 μg/ml amphotericin B, and 5% fetal bovine serum). After completion of the transplantation, the NOD/SCID mouse was raised until tumors were formed. Meanwhile, the formation and growth of tumors were checked at least once a week. When the transplanted cancer tissues grew to a size of at least 500 mm^3, an extraction process was performed thereon. Then, the extracted cancer tissues were each cut into pieces each having a size of 3×3 mm for subculturing. A nude mouse was anesthetized via intraperitoneal injection of anesthetics, and a piece of the cut cancer tissues was transplanted subcutaneously on the right thigh of the nude mouse. A transplantation site was changed from the flank to the thigh so that irradiation can be locally done without affecting other organs during irradiation. That is, a finally used mouse model transplanted with a patient's colorectal cancer tissue in the present invention was a mouse model established in a way that a cancer tissue that underwent subculturing four times was re-transplanted to form a cancer tissue. When the size of the cancer tissue was increased to about 250 mm^3, only the cancer tissue was irradiated with 2 grays (Gy) of radiation. After having recovery time for no longer than 24 hours, in vivo peptide screening was performed. Here, a non-irradiated population, which is a control group, was also subjected to screening in a separate manner.
(§2) In detail, regarding in vivo imaging verification, the peptide-expressing phage was amplified, and a process of linking a fluorescent probe (Cy5.5) was performed. In particular, 1 μg/μl of N-hydroxysuccinimide esters of Cy5.5 (Amersham) was added to 1 mL of bicarbonate buffer (pH 8.3) having the phage concentration of 10^12 plaque forming units (pfu), and then, in a condition where a dark environment was maintained, a phage-surface protein was linked to the Cy5.5 fluorescent probe at room temperature for 3 hours. That is, amine groups of the phage-surface protein were chemically linked to N-hydroxysuccinimide esters of the Cy5.5 fluorescent probe via a covalent bond. The peptide-expressing phages to which the Cy5.5 fluorescent probe was linked were each obtained by precipitation with 170 μl of 20% (w/v) PEG 8000/2.5 M NaCl solution and purification. To determine a proportion of the Cy5.5 fluorescent probe linked to each of the finally obtained phage samples, an IVIS spectrum imaging system (Xenogen) was used for measurement, and region of interest (ROI) values were determined using the software program of a corresponding device.
(§3) In addition, on the last day of the in vivo imaging, the cancer tissues were each extracted, to thereby obtain ex vivo images thereof.

[2] = tested on: Radio-resistant colorectal cancer tissue of patient (case C65); test: as above; parameters: species or system nude mouse; conditions: case C65, non-irradiated population; for in vivo ROI: Cy5.5 fluorescence total flux standardized to Cy5.5 dye control; for pfu/mg (concentration of eluted phages relative to weight of cancer tissue) / ex vivo ROI: extracted cancer tissue; for ex vivo ROI: standardized to Cy5.5 dye control
Text: as §1, §2, §3

[3] = case C87, non-irradiated population
[4] = case C87, irradiated population (2 Gy)

Substance	in vivo ROI [1, 3]	pfu/mg (concentration of eluted phages relative to weight of cancer tissue) [1, 3]	ex vivo ROI [1, 3]	other results
AFKSPSG [E14]	0.70	2.89 pfu/mg	0.55	–
AIKNTKS [E8]	0.90	15.00 pfu/mg	0.49	–
ASKSTHD [A7]	–	–	–	in vivo ROI [2]: 1.80; pfu/mg (concentration of eluted phages relative to weight of cancer tissue) [2]: 27.14 pfu/mg; ex vivo ROI [2]: 1.08
DETSGQI [E12]	1.24	5.56 pfu/mg	1.07	–
DLLHRGA [A9]	–	–	–	in vivo ROI [2]: 2.35; pfu/mg (concentration of eluted phages relative to weight of cancer tissue) [2]: 54.17 pfu/mg; ex vivo ROI [2]: 0.56
DNSKLVE [F4]	–	–	–	in vivo ROI [1, 4]: 1.59; pfu/mg (concentration of eluted phages relative to weight of cancer tissue) [1, 4]: 69.18 pfu/mg; ex vivo ROI [1, 4]: 3.11
DVSGNW [A8]	–	–	–	in vivo ROI [2]: 2.99; pfu/mg (concentration of eluted phages relative to weight of cancer tissue) [2]: 8.56 pfu/mg; ex vivo ROI [2]: 1.57
GGNSNQR [E5]	0.92	15.96 pfu/mg	0.76	–
GQSGARF [F8]	–	–	–	in vivo ROI [1, 4]: 1.18; pfu/mg (concentration of eluted phages relative to weight of cancer tissue) [1, 4]: 6.10 pfu/mg; ex vivo ROI [1, 4]: 1.92
HKTEHRS [E18]	0.69	4.15 pfu/mg	0.21	–
KISLPHN [E13]	1.50	1.22 pfu/mg	0.93	–
KLTQMM [F1]	–	–	–	in vivo ROI [1, 4]: 1.63; pfu/mg (concentration of eluted phages relative to weight of cancer tissue) [1, 4]: 6.73 pfu/mg; ex vivo ROI [1, 4]: 2.39
LGSVGRD [F7]	–	–	–	in vivo ROI [1, 4]: 1.61; pfu/mg (concentration of eluted phages relative to weight of cancer tissue) [1, 4]: 141.04 pfu/mg; ex vivo ROI [1, 4]: 3.97
LKTSGTY [E15]	0.77	6.13 pfu/mg	0.47	–
LQPKASQ [A6]	–	–	–	in vivo ROI [2]: 2.75; pfu/mg (concentration of eluted phages relative to weight of cancer tissue) [2]: 15.4 pfu/mg; ex vivo ROI [2]: 1.47
LTGSVNK [E10]	1.19	2.25 pfu/mg	1.00	–
MARYMSA [A10]	–	–	–	in vivo ROI [2]: 2.26; pfu/mg (concentration of eluted phages relative to weight of cancer tissue) [2]: 183.16 pfu/mg; ex vivo ROI [2]: 1.58
MNFIQKN [E11]	1.05	4.43 pfu/mg	0.34	–
NGNSNTL [F9]	–	–	–	in vivo ROI [1, 4]: 1.77; pfu/mg (concentration of eluted phages relative to weight of cancer tissue) [1, 4]: 95.24 pfu/mg; ex vivo ROI [1, 4]: 4.45
QLWQKEQ [F5]	–	–	–	in vivo ROI [1, 4]: 1.63; pfu/mg (concentration of eluted phages relative to weight of cancer tissue) [1, 4]: 144.55 pfu/mg; ex vivo ROI [1, 4]: 3.72
QQTKNYY [E7]	2.02	58.32 pfu/mg	1.38	–
RSTGSSC [E16]	0.50	2.14 pfu/mg	0.24	–
SFFPFST [F3]	–	–	–	in vivo ROI [1, 4]: 1.07; pfu/mg (concentration of eluted phages relative to weight of cancer tissue) [1, 4]: 22.31 pfu/mg; ex vivo ROI [1, 4]: 2.64
TAFSLGK [E6]	0.78	4.24 pfu/mg	0.77	–
TNPYPLD [F10]	–	–	–	in vivo ROI [1, 4]: 1.91; pfu/mg (concentration of eluted phages relative to weight of cancer tissue) [1, 4]: 7.86 pfu/mg; ex vivo ROI [1, 4]: 1.74
TVRTSAV [E9]	1.27	86.40 pfu/mg	1.20	–
VQMPAHS [E4]	0.84	5.00 pfu/mg	0.94	–
YVSKNNS [E17]	1.66	204.00 pfu/mg	1.29	–
